# According to publication PMC5681660, “Reduced hepatitis B and D viral entry using clinically applied drugs as novel inhibitors of the bile acid transporter NTCP” (Scientific Reports, 2017):
# Key:
# [1] = system: patient-derived HBV (genotype B); test: Serum-derived HBV genotype B infection of HepaRG cells stably transduced with hNTCP; type: cell-based, hepatitis B virus; conditions: NTCP-overexpressing HepaRG cells
# Procedure: Supplementary materials and methods Serum-derived HBV genotype B infection study For these experiments HepaRG cells stably transduced with hNTCP were used. Differentiation and serum-derived HBV genotype B infection were performed following similar protocols as described for wildtype HepaRG cells in the main materials&methods with the following changes: 8 hours infection and supernatant collection for HBeAg and HBsAg analysis from day 9 to 12. Total RNA was extracted from cells 12 days after infection using the NucleoSpin RNA isolation kit (Macherey-Nagel). Reverse transcription was performed with the High-Capacity cDNA Reverse Transcription Kit (Thermo Scientific). mRNA levels were determined by qPCR using the iTaq™ Universal SYBR® Green Supermix (Bio-rad) with HBV specific primers (forward: 5’-[…]-3’; reverse: 5’-[…]-3’). GAPDH mRNA levels were used for normalization (forward: 5’-[…]-3’; reverse: 5’-[…]-3’). Total DNA was extracted from cells 12 days after infection using the NucleoSpin Tissue kit (Macherey-Nagel). HBV DNA levels were determined by qPCR PerfeCTa qPCR Toughmix (Quanta Biosciences) with HBV specific primers (forward: 5’- […]-3’; reverse: 5’- […]-3’) and a probe (5’-TxRed-[…]-BHQ2-3’). β-globin levels were used for normalization (forward: 5’- […]-3’; reverse: 5’- […]-3’; probe: 5’-HEX- […]-BHQ1-3’). […]
# human NTCP = target: T1, human NTCP (Homo sapiens, UniProt Q14973); test: Taurocholate uptake inhibition studies in U2OS-HA-hNTCP cells; type: cell-based; design: HA; expressed in transfected cells
# T1 sequence (Q14973 1-349): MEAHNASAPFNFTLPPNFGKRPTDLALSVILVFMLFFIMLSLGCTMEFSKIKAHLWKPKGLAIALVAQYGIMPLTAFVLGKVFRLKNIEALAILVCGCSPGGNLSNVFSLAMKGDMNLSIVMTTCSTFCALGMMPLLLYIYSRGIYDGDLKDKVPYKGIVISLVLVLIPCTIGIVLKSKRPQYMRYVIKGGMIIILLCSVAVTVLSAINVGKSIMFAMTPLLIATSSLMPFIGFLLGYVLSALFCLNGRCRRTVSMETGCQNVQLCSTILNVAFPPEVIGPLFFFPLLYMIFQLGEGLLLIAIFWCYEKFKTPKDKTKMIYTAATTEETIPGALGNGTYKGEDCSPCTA
compound,measurement,setting,value
O=C(O)c1cc(/N=N/c2ccc(S(=O)(=O)Nc3ccccn3)cc2)ccc1O [Sulfasalazine],"HBeAg, HBsAg, HBV DNA and HBV RNA after serum-derived HBV infection",[1],"reduced HBeAg, HBsAg, HBV DNA, and HBV RNA in a dose-dependent fashion"
same,"HBeAg, HBsAg, HBV DNA and HBV RNA after serum-derived HBV infection",[1]; listed as sulfasalazine,reduced by sulfasalazine in a dose-dependent fashion
same,concentration at which NTCP was inhibited in repeated measurements of TC-uptake and Myrcludex B binding,"human NTCP; U2OS-HA-hNTCP cells, both TC uptake and Myrcludex B binding",≤ 10 µM
same,IC50,"human NTCP; U2OS-HA-hNTCP cells, concentrations 1 nM to 10 mM, read-out: IC50 for hNTCP-mediated TC uptake",9.6 µM
same,Taurocholate uptake into U2OS-HA-hNTCP cells (in words),human NTCP; increasing drug concentrations,reduced
